Article PMC5218480 (PLoS ONE, 2017)

System: MV-4-11 cells
Experiment: Gene expression microarray analysis (Affymetrix PrimeView) and GSEA
Format: cell-based, human
Parameters: RFU PODN (11730768_x_at) / Fold change /veh PODN (11730768_x_at) / RFU LINC00158 (11744669_a_at) / Fold change /veh LINC00158 (11744669_a_at) / RFU DUSP10 (11751237_a_at) / Fold change /veh DUSP10 (11751237_a_at) / RFU ID3 (11757404_x_at) / Fold change /veh ID3 (11757404_x_at) / RFU PLEKHG5 (11737974_s_at) / Fold change /veh PLEKHG5 (11737974_s_at) / RFU LRRC4B (11730491_at) / Fold change /veh LRRC4B (11730491_at) / RFU GIMAP4 (11747438_a_at) / Fold change /veh GIMAP4 (11747438_a_at) / RFU KRT8 (11758183_x_at) / Fold change /veh KRT8 (11758183_x_at) / RFU CNN1 (11734310_a_at) / Fold change /veh CNN1 (11734310_a_at) / RFU VPS37D (11726825_at) / Fold change /veh VPS37D (11726825_at) / RFU C10orf10 (11716522_x_at) / Fold change /veh C10orf10 (11716522_x_at) / RFU KIR2DL2 /// KIR2DL4 /// KIR2DL5A /// KIR2DL5B /// KIR2DS1 /// KIR2DS2 /// KIR2DS3 /// KIR2DS4 /// KIR3DL3 /// KIR3DL3 /// KIR3DS1 (11738374_at) / Fold change /veh KIR2DL2 /// KIR2DL4 /// KIR2DL5A /// KIR2DL5B /// KIR2DS1 /// KIR2DS2 /// KIR2DS3 /// KIR2DS4 /// KIR3DL3 /// KIR3DL3 /// KIR3DS1 (11738374_at) / RFU C1QL1 (11718748_at) / Fold change /veh C1QL1 (11718748_at) / RFU TMPRSS4 (11747572_a_at) / Fold change /veh TMPRSS4 (11747572_a_at) / RFU HAMP (11756126_x_at) / Fold change /veh HAMP (11756126_x_at) / RFU RNFT2 (11725882_a_at) / Fold change /veh RNFT2 (11725882_a_at) / RFU NR4A2 (11747474_a_at) / Fold change /veh NR4A2 (11747474_a_at) / RFU ABCC12 (11746883_a_at) / Fold change /veh ABCC12 (11746883_a_at) / RFU TMEM136 (11760407_x_at) / Fold change /veh TMEM136 (11760407_x_at) / RFU CLDN22 /// WWC2 (11732394_at) / Fold change /veh CLDN22 /// WWC2 (11732394_at) / RFU HLA-DPB1 (11760878_x_at) / Fold change /veh HLA-DPB1 (11760878_x_at) / RFU SPINT1 (11716480_a_at) / Fold change /veh SPINT1 (11716480_a_at) / RFU GAP43 (11754022_s_at) / Fold change /veh GAP43 (11754022_s_at) / RFU A4GNT (11735810_at) / Fold change /veh A4GNT (11735810_at) / RFU PRB3 (11715151_x_at) / Fold change /veh PRB3 (11715151_x_at) / RFU TUBB4B (11761932_at) / Fold change /veh TUBB4B (11761932_at) / RFU CAPN14 (11732068_a_at) / Fold change /veh CAPN14 (11732068_a_at) / RFU TMCC2 (11721928_a_at) / Fold change /veh TMCC2 (11721928_a_at) / RFU IRGQ (11745062_a_at) / Fold change /veh IRGQ (11745062_a_at) / RFU FAM174B (11720279_a_at) / Fold change /veh FAM174B (11720279_a_at) / RFU TMPRSS4 (11748680_a_at) / Fold change /veh TMPRSS4 (11748680_a_at) / RFU FAM212B (11763350_a_at) / Fold change /veh FAM212B (11763350_a_at) / RFU PLEKHG5 (11743358_a_at) / Fold change /veh PLEKHG5 (11743358_a_at) / RFU ZSCAN30 (11745921_a_at) / Fold change /veh ZSCAN30 (11745921_a_at) / RFU CMKLR1 (11741424_a_at) / Fold change /veh CMKLR1 (11741424_a_at) / RFU LOC101060620 /// MAPK8IP1 (11723275_at) / Fold change /veh LOC101060620 /// MAPK8IP1 (11723275_at) / RFU SPTSSB (11747773_x_at) / Fold change /veh SPTSSB (11747773_x_at) / RFU PRSS12 (11739890_at) / Fold change /veh PRSS12 (11739890_at) / RFU BIN1 (11741810_x_at) / Fold change /veh BIN1 (11741810_x_at) / RFU WNT11 (11732464_a_at) / Fold change /veh WNT11 (11732464_a_at) / RFU C10orf10 (11716521_a_at) / Fold change /veh C10orf10 (11716521_a_at) / RFU C5orf56 (11738089_at) / Fold change /veh C5orf56 (11738089_at) / RFU CYB561 (11721691_x_at) / Fold change /veh CYB561 (11721691_x_at) / RFU ANKRD19P (11752326_a_at) / Fold change /veh ANKRD19P (11752326_a_at) / RFU OR2T12 /// OR2T33 /// OR2T8 (11738714_s_at) / Fold change /veh OR2T12 /// OR2T33 /// OR2T8 (11738714_s_at) / RFU VCAN (11748164_a_at) / Fold change /veh VCAN (11748164_a_at) / RFU JSRP1 (11732532_at) / Fold change /veh JSRP1 (11732532_at) / RFU KRTAP10-11 (11738290_x_at) / Fold change /veh KRTAP10-11 (11738290_x_at) / RFU MYO3A (11730013_a_at) / Fold change /veh MYO3A (11730013_a_at) / RFU EBF3 (11725865_a_at) / Fold change /veh EBF3 (11725865_a_at) / RFU CAMK2N1 (11719241_x_at) / Fold change /veh CAMK2N1 (11719241_x_at) / RFU C5orf56 (11738088_a_at) / Fold change /veh C5orf56 (11738088_a_at) / RFU OLFML3 (11715873_a_at) / Fold change /veh OLFML3 (11715873_a_at) / RFU LOC100653217 /// NTM (11731650_a_at) / Fold change /veh LOC100653217 /// NTM (11731650_a_at) / RFU MAPK11 (11762145_a_at) / Fold change /veh MAPK11 (11762145_a_at) / RFU FIZ1 (11724087_x_at) / Fold change /veh FIZ1 (11724087_x_at) / RFU OASL (11726364_x_at) / Fold change /veh OASL (11726364_x_at) / RFU SOX15 (11748057_x_at) / Fold change /veh SOX15 (11748057_x_at) / RFU CD79A (11719716_a_at) / Fold change /veh CD79A (11719716_a_at) / RFU HIST1H1D (11736915_at) / Fold change /veh HIST1H1D (11736915_at) / RFU CASKIN2 (11723855_a_at) / Fold change /veh CASKIN2 (11723855_a_at) / RFU LOC730098 (11760151_x_at) / Fold change /veh LOC730098 (11760151_x_at) / RFU OR4N2 (11742367_at) / Fold change /veh OR4N2 (11742367_at) / RFU PRRT2 (11749266_a_at) / Fold change /veh PRRT2 (11749266_a_at) / RFU SNX32 (11753110_a_at) / Fold change /veh SNX32 (11753110_a_at) / RFU CDHR5 (11726645_a_at) / Fold change /veh CDHR5 (11726645_a_at) / RFU RCAN1 (11760418_a_at) / Fold change /veh RCAN1 (11760418_a_at) / RFU FAM167A (11723789_a_at) / Fold change /veh FAM167A (11723789_a_at) / RFU FAM26E (11764081_at) / Fold change /veh FAM26E (11764081_at) / RFU ISYNA1 (11749810_s_at) / Fold change /veh ISYNA1 (11749810_s_at) / RFU ACY1 (11761880_at) / Fold change /veh ACY1 (11761880_at) / RFU 11764098_at / Fold change /veh 11764098_at / RFU SAMD14 (11745864_x_at) / Fold change /veh SAMD14 (11745864_x_at) / RFU NPB (11741838_a_at) / Fold change /veh NPB (11741838_a_at) / RFU TMPRSS6 (11731388_a_at) / Fold change /veh TMPRSS6 (11731388_a_at) / RFU KRTAP10-2 (11738614_at) / Fold change /veh KRTAP10-2 (11738614_at) / RFU ARHGAP8 /// PRR5-ARHGAP8 (11727945_x_at) / Fold change /veh ARHGAP8 /// PRR5-ARHGAP8 (11727945_x_at) / RFU KRTAP5-7 /// NADSYN1 (11734609_at) / Fold change /veh KRTAP5-7 /// NADSYN1 (11734609_at) / RFU RASL12 (11751679_a_at) / Fold change /veh RASL12 (11751679_a_at) / RFU CDKN2B (11736163_a_at) / Fold change /veh CDKN2B (11736163_a_at) / RFU PRF1 (11729649_at) / Fold change /veh PRF1 (11729649_at) / RFU, ZNF638 /// ZNF638-IT1 / Fold change vs veh, ZNF638 /// ZNF638-IT1 / RFU, PANK3 / Fold change vs veh, PANK3 / RFU, SH3YL1 / Fold change vs veh, SH3YL1 / RFU, ZEB2 / Fold change vs veh, ZEB2 / RFU, NRIP1 / Fold change vs veh, NRIP1 / RFU, PTTG1IP / Fold change vs veh, PTTG1IP / RFU, CAPN2 / Fold change vs veh, CAPN2 / RFU, MED14 / Fold change vs veh, MED14 / RFU, SNORA58 / Fold change vs veh, SNORA58 / RFU, C1orf63 / Fold change vs veh, C1orf63 / RFU, LRRFIP1 / Fold change vs veh, LRRFIP1 / RFU, NDUFAF7 / Fold change vs veh, NDUFAF7 / RFU, SLC12A2 / Fold change vs veh, SLC12A2 / RFU, IBTK / Fold change vs veh, IBTK / RFU, ESF1 / Fold change vs veh, ESF1 / Fold change vs veh, TMEM50B / RFU, TAOK1 / Fold change vs veh, TAOK1 / RFU, ACBD3 / Fold change vs veh, ACBD3 / RFU, TMA16 / Fold change vs veh, TMA16 / RFU, RWDD3 / Fold change vs veh, RWDD3 / RFU, BCAT1 / Fold change vs veh, BCAT1 / RFU, EDEM3 / Fold change vs veh, EDEM3 / RFU, TMEM33 / Fold change vs veh, TMEM33 / RFU, WDR75 / Fold change vs veh, WDR75 / RFU, AHCTF1 / Fold change vs veh, AHCTF1 / RFU, TFRC / Fold change vs veh, TFRC / RFU, ZDHHC17 / Fold change vs veh, ZDHHC17 / RFU, NOM1 / Fold change vs veh, NOM1 / RFU, ARL8B / Fold change vs veh, ARL8B / RFU, ZBTB11 / Fold change vs veh, ZBTB11 / RFU, TAMM41 / Fold change vs veh, TAMM41 / RFU, KIAA1704 /// LOC100996395 / Fold change vs veh, KIAA1704 /// LOC100996395 / RFU, ING1 / Fold change vs veh, ING1 / RFU, TRMT61B / Fold change vs veh, TRMT61B / RFU, FUBP3 / Fold change vs veh, FUBP3 / RFU, TP53 / Fold change vs veh, TP53 / RFU, TNKS2 / Fold change vs veh, TNKS2 / RFU, ZFP14 / Fold change vs veh, ZFP14 / RFU, ACTR2 / Fold change vs veh, ACTR2 / RFU, PPP3R1 / Fold change vs veh, PPP3R1 / RFU, PIK3R1 / Fold change vs veh, PIK3R1 / RFU, HNRNPA1 / Fold change vs veh, HNRNPA1 / RFU, RNF170 / Fold change vs veh, RNF170 / RFU, ZNF28 / Fold change vs veh, ZNF28 / RFU, RNGTT / Fold change vs veh, RNGTT / RFU, OGT / Fold change vs veh, OGT / RFU, BRD1 / Fold change vs veh, BRD1 / RFU, MARS / Fold change vs veh, MARS / RFU, ZNF655 / Fold change vs veh, ZNF655 / RFU, FAHD1 / Fold change vs veh, FAHD1 / RFU, BDP1 / Fold change vs veh, BDP1 / RFU, LRRCC1 / Fold change vs veh, LRRCC1 / RFU, ARID1A / Fold change vs veh, ARID1A / RFU, ZNF146 / Fold change vs veh, ZNF146 / RFU, ZNF330 / Fold change vs veh, ZNF330 / RFU, GPN3 / Fold change vs veh, GPN3 / RFU, C9orf123 / Fold change vs veh, C9orf123 / RFU, N4BP2L2 / Fold change vs veh, N4BP2L2 / RFU, ARFIP1 / Fold change vs veh, ARFIP1 / RFU, FAM179B / Fold change vs veh, FAM179B / RFU, BCL10 / Fold change vs veh, BCL10 / RFU, UHRF1BP1L / Fold change vs veh, UHRF1BP1L / RFU, BET1 / Fold change vs veh, BET1 / RFU, CNOT2 / Fold change vs veh, CNOT2 / RFU, ZNF268 / Fold change vs veh, ZNF268 / Fold change vs veh, ZNF507 / RFU, DGCR2 / Fold change vs veh, DGCR2 / RFU, WDSUB1 / Fold change vs veh, WDSUB1 / Fold change vs veh, HSP90B1 /// MIR3652 / RFU, ADSS / Fold change vs veh, ADSS / RFU, GK / Fold change vs veh, GK / RFU, ZNF148 / Fold change vs veh, ZNF148 / RFU, TAF9 / Fold change vs veh, TAF9 / RFU, SLC1A5 / Fold change vs veh, SLC1A5 / RFU, SLMO2 / Fold change vs veh, SLMO2 / RFU, ABCC4 / Fold change vs veh, ABCC4 / RFU, LOC101060439 /// RAP1B / Fold change vs veh, LOC101060439 /// RAP1B / RFU, RFX7 / Fold change vs veh, RFX7 / RFU, GTPBP10 / Fold change vs veh, GTPBP10 / RFU, CNEP1R1 / Fold change vs veh, CNEP1R1 / RFU, BIVM-ERCC5 /// ERCC5 / Fold change vs veh, BIVM-ERCC5 /// ERCC5 / RFU, ILF3 / Fold change vs veh, ILF3 / RFU 11762660_at / Fold change /veh 11762660_at / RFU VCAN (11757783_s_at) / Fold change /veh VCAN (11757783_s_at) / RFU DDX43 (11728927_at) / Fold change /veh DDX43 (11728927_at) / RFU KRT8 (11758188_x_at) / Fold change /veh KRT8 (11758188_x_at) / RFU NKD1 (11759106_at) / Fold change /veh NKD1 (11759106_at) / RFU SRD5A1 (11742802_a_at) / Fold change /veh SRD5A1 (11742802_a_at) / RFU TPSAB1 /// TPSB2 (11721975_s_at) / Fold change /veh TPSAB1 /// TPSB2 (11721975_s_at) / RFU GSTM3 (11746129_a_at) / Fold change /veh GSTM3 (11746129_a_at) / RFU IL23R (11737362_x_at) / Fold change /veh IL23R (11737362_x_at) / RFU TMEM51 (11727254_a_at) / Fold change /veh TMEM51 (11727254_a_at) / RFU PIWIL2 (11732686_x_at) / Fold change /veh PIWIL2 (11732686_x_at) / RFU ORM1 (11744905_x_at) / Fold change /veh ORM1 (11744905_x_at) / RFU CCDC152 (11743942_at) / Fold change /veh CCDC152 (11743942_at) / RFU ECM1 (11717891_a_at) / Fold change /veh ECM1 (11717891_a_at) / RFU IL23R (11748794_a_at) / Fold change /veh IL23R (11748794_a_at) / RFU TNFAIP8L3 (11732012_x_at) / Fold change /veh TNFAIP8L3 (11732012_x_at) / RFU MBOAT4 (11741988_at) / Fold change /veh MBOAT4 (11741988_at) / RFU 11764193_at / Fold change /veh 11764193_at / RFU TMEM53 (11763286_at) / Fold change /veh TMEM53 (11763286_at) / RFU MAGEB2 (11727129_at) / Fold change /veh MAGEB2 (11727129_at) / RFU TMEM200A (11744735_a_at) / Fold change /veh TMEM200A (11744735_a_at) / RFU CCDC152 (11751479_a_at) / Fold change /veh CCDC152 (11751479_a_at) / RFU FAM211A (11726209_a_at) / Fold change /veh FAM211A (11726209_a_at) / RFU RGS16 (11746705_a_at) / Fold change /veh RGS16 (11746705_a_at) / RFU VCAN (11755009_s_at) / Fold change /veh VCAN (11755009_s_at) / RFU RHOB (11743442_s_at) / Fold change /veh RHOB (11743442_s_at) / RFU RGS16 (11720943_a_at) / Fold change /veh RGS16 (11720943_a_at) / RFU RGS16 (11720944_at) / Fold change /veh RGS16 (11720944_at) / RFU, VPS4B / Fold change vs veh, VPS4B / RFU, CREB1 / Fold change vs veh, CREB1 / RFU, DNAJC13 / Fold change vs veh, DNAJC13 / RFU, GNAQ / Fold change vs veh, GNAQ / RFU, CDK5R1 / Fold change vs veh, CDK5R1 / RFU, ZRANB3 / Fold change vs veh, ZRANB3 / RFU, CUL4A / Fold change vs veh, CUL4A / RFU, CCNY / Fold change vs veh, CCNY / RFU, UFL1 / Fold change vs veh, UFL1 / RFU, COG3 / Fold change vs veh, COG3 / RFU, DIAPH2 / Fold change vs veh, DIAPH2 / RFU, SKA2 / Fold change vs veh, SKA2 / RFU, AFF3 / Fold change vs veh, AFF3 / RFU, LMF1 / Fold change vs veh, LMF1 / RFU, IPO11 / Fold change vs veh, IPO11 / RFU, DFFB / Fold change vs veh, DFFB / RFU, FOXP1 / Fold change vs veh, FOXP1 / RFU, CARD8 / Fold change vs veh, CARD8 / RFU, STRN3 / Fold change vs veh, STRN3 / RFU, ADK / Fold change vs veh, ADK / RFU, RASSF2 / Fold change vs veh, RASSF2 / RFU, WIPF1 / Fold change vs veh, WIPF1 / RFU, LARP1B / Fold change vs veh, LARP1B / RFU, RASA1 / Fold change vs veh, RASA1 / RFU, RB1 / Fold change vs veh, RB1 / RFU, PPFIA1 / Fold change vs veh, PPFIA1 / RFU, MAT2A / Fold change vs veh, MAT2A / RFU, CCT5 / Fold change vs veh, CCT5 / RFU, WDR92 / Fold change vs veh, WDR92 / RFU, CUX1 / Fold change vs veh, CUX1 / RFU, TTC7A / Fold change vs veh, TTC7A / RFU, TMEM135 / Fold change vs veh, TMEM135 / RFU, DEPTOR / Fold change vs veh, DEPTOR / RFU, CPM / Fold change vs veh, CPM / RFU, DNAJB6 / Fold change vs veh, DNAJB6 / RFU, CACNA2D3 / Fold change vs veh, CACNA2D3 / RFU, DTX4 / Fold change vs veh, DTX4 / RFU, TFCP2 / Fold change vs veh, TFCP2 / RFU, GMCL1 /// GMCL1P1 / Fold change vs veh, GMCL1 /// GMCL1P1 / RFU, AEBP2 / Fold change vs veh, AEBP2 / RFU, SNHG1 /// SNORD22 /// SNORD25 /// SNORD26 /// SNORD27 /// SNORD28 /// SNORD29 /// SNORD31 / Fold change vs veh, SNHG1 /// SNORD22 /// SNORD25 /// SNORD26 /// SNORD27 /// SNORD28 /// SNORD29 /// SNORD31 / Fold change (Aza/veh), C12orf56 (ProbeSet 11735607_a_at) / Fold change (ACY-1035/veh), C12orf56 (ProbeSet 11735607_a_at) / Fold change (Aza/veh), FGFR1OP (ProbeSet 11751329_s_at) / Fold change (ACY-1035/veh), FGFR1OP (ProbeSet 11751329_s_at) / Fold change (Aza/veh), VPS36 (ProbeSet 11739960_a_at) / Fold change (ACY-1035/veh), VPS36 (ProbeSet 11739960_a_at) / RFU SYPL1 (11715823_x_at) / Fold change /veh SYPL1 (11715823_x_at) / RFU IGFBP7 (11715501_s_at) / Fold change /veh IGFBP7 (11715501_s_at) / RFU REEP3 (11722064_at) / Fold change /veh REEP3 (11722064_at) / RFU IGLL1 (11728026_x_at) / Fold change /veh IGLL1 (11728026_x_at): dose or concentration left out as unconfirmed
Details: ProbeSet 11758919_x_at; LIST D

SMILES: Nc1ncn([C@@H]2O[C@H](CO)[C@@H](O)[C@H]2O)c(=O)n1 [azacitidine]
- Fold change vs veh, TFCP2: 0.71
